Legend:
Test in all cases: SelectScreen Biochemical Kinase Assay
[1] = target: Phosphatidylinositol 4,5-bisphosphate 3-kinase catalytic subunit alpha isoform (Mus musculus, UniProt P42337)
Description: (§1) Biochemical in vitro lipid kinase assays were performed by the SelectScreen biochemical kinase assay service (Invitrogen Ltd.). A stock solution of GS-9820 was prepared in DMSO at a concentration of 10 mM. Ten-point kinase inhibitory activities were measured over a concentration range (5 to 10^4 nM) with ATP at a concentration consistent with the Km of each of the enzymes.

[2] = target: T1, Phosphatidylinositol 4,5-bisphosphate 3-kinase catalytic subunit delta isoform (Mus musculus, UniProt O35904)
T1 sequence (O35904 whole entry): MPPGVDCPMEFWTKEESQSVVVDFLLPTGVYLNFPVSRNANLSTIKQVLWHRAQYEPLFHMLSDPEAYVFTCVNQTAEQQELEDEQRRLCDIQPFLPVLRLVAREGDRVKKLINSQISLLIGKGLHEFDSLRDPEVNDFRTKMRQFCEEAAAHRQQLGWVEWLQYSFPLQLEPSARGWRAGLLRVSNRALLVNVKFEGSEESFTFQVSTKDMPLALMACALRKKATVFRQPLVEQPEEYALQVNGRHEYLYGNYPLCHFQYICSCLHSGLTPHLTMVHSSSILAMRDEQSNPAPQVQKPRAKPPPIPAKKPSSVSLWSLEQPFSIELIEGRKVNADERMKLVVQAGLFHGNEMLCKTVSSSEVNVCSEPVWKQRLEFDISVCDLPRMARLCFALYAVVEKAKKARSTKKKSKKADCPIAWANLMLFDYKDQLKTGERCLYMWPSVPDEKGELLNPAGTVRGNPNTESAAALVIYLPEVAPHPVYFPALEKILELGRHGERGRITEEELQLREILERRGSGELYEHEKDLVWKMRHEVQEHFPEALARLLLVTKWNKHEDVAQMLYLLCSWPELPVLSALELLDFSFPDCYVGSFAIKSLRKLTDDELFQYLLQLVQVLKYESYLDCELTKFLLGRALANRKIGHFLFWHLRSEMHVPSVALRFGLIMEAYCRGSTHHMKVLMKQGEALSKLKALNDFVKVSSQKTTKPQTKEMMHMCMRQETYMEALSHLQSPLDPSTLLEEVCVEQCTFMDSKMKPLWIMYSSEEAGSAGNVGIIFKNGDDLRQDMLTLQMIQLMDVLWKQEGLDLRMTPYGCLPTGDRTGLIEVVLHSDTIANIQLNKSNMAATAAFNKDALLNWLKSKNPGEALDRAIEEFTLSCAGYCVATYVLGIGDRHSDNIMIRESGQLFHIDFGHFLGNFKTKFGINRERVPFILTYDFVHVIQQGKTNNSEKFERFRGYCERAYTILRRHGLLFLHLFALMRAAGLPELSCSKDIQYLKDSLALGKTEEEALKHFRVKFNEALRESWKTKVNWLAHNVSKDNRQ
Description: as §1

[3] = target: Phosphatidylinositol 4,5-bisphosphate 3-kinase catalytic subunit gamma isoform (Mus musculus, UniProt Q9JHG7)
Description: as §1

[4] = target: DNA-dependent protein kinase catalytic subunit (Mus musculus, UniProt P97313)
Chain of DNA-dependent protein kinase catalytic subunit (P97313 whole entry): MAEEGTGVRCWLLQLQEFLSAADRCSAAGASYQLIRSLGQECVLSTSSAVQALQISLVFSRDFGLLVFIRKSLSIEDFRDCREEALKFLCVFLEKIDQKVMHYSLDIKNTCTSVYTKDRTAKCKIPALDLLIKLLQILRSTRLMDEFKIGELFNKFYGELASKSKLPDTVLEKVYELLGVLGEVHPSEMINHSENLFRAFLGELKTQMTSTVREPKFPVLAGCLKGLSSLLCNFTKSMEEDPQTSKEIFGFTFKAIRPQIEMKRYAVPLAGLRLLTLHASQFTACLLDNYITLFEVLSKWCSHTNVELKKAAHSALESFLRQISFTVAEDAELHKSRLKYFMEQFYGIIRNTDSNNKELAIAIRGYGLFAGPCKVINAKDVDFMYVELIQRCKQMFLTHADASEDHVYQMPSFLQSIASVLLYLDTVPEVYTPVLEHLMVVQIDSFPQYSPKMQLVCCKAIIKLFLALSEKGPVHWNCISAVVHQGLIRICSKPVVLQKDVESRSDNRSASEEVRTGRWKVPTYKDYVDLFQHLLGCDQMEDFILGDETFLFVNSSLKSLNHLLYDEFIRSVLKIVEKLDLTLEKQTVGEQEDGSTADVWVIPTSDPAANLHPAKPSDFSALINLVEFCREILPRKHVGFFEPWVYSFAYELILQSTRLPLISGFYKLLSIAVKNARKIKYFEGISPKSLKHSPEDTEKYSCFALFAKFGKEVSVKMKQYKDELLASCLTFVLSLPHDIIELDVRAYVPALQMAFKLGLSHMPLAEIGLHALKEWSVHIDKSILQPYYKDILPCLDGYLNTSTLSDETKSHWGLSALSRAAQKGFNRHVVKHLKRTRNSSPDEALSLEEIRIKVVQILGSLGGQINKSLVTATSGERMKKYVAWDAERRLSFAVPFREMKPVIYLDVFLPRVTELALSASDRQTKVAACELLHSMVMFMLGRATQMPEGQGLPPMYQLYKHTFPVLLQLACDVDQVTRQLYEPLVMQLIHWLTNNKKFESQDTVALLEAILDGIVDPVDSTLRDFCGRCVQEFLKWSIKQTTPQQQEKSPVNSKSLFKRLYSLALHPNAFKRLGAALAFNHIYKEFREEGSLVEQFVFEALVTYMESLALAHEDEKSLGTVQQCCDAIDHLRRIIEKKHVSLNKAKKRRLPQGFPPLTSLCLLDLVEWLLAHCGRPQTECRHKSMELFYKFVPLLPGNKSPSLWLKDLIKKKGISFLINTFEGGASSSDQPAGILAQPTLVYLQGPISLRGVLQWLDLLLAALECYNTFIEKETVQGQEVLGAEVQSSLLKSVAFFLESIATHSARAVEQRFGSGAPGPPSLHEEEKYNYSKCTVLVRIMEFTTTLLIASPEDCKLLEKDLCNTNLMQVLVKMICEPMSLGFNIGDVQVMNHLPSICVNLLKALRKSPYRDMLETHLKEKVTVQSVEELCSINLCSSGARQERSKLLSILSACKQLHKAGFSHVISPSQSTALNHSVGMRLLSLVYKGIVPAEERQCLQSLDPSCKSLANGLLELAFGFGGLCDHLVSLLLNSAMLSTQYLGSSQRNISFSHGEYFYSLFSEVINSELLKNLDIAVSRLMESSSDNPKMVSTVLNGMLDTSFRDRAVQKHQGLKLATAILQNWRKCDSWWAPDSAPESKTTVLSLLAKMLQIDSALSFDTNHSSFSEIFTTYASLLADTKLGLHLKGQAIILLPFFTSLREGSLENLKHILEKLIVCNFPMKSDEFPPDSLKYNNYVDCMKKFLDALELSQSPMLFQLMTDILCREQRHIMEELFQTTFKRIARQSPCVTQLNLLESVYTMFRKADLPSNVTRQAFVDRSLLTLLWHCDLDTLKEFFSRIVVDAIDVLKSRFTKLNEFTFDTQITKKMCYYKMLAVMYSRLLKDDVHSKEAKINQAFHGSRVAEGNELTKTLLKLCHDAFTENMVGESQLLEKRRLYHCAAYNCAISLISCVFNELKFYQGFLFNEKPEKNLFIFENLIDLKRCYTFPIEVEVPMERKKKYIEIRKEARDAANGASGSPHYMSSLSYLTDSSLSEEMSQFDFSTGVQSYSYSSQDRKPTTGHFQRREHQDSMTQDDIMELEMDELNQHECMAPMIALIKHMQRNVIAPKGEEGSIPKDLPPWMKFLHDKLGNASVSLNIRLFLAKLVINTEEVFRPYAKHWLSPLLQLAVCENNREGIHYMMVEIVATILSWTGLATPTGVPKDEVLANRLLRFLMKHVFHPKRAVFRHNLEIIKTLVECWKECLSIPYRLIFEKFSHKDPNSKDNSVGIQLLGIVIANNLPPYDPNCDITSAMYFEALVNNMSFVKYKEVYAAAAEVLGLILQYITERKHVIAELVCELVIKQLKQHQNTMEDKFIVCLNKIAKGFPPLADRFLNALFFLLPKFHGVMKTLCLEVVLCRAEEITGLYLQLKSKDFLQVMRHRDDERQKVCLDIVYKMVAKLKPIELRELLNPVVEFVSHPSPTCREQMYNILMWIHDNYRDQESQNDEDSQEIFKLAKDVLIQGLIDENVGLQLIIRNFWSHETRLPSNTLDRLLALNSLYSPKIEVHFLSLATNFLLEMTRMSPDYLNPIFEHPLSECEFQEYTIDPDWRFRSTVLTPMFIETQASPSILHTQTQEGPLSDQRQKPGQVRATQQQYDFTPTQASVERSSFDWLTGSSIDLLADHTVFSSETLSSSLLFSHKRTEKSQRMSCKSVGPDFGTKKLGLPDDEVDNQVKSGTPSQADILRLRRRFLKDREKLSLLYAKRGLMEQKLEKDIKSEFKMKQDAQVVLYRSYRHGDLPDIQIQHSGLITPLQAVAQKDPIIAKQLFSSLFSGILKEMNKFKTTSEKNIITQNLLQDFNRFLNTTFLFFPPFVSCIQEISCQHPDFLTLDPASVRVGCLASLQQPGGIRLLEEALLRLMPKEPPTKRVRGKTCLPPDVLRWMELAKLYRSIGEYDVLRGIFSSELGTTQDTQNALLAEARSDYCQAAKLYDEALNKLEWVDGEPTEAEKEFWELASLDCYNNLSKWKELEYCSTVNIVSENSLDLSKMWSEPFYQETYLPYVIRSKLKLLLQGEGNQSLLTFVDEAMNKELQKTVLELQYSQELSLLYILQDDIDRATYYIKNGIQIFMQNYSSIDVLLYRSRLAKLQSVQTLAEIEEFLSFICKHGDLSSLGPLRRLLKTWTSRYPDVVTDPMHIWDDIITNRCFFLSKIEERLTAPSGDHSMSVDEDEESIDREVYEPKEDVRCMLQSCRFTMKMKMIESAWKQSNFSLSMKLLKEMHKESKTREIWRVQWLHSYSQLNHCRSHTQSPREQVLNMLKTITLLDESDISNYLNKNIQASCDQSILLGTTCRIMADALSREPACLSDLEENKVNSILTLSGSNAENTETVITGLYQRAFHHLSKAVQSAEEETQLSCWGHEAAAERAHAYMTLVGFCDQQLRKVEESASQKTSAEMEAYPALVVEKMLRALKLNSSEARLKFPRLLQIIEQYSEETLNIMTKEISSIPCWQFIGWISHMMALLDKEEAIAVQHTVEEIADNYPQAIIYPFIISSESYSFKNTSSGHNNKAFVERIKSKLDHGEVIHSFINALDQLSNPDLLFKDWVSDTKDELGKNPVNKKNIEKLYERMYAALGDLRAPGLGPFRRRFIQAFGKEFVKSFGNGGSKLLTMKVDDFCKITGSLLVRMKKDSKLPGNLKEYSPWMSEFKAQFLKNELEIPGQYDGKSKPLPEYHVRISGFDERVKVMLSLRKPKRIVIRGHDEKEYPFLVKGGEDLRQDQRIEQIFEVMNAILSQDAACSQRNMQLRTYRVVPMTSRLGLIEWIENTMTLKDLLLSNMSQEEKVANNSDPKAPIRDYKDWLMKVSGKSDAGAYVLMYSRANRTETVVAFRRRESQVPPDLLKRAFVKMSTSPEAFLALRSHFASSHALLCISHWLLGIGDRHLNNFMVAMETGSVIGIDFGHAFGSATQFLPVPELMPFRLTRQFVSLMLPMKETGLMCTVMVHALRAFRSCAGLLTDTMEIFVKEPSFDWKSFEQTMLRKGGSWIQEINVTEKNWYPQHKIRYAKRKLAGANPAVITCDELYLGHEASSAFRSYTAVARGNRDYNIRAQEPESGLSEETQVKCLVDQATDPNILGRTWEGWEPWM
Description: as §1

[5] = target: Phosphatidylinositol 4,5-bisphosphate 3-kinase catalytic subunit beta isoform (Mus musculus, UniProt Q8BTI9)
Chain of Phosphatidylinositol 4,5-bisphosphate 3-kinase catalytic subunit beta isoform (Q8BTI9 whole entry, canonical isoform): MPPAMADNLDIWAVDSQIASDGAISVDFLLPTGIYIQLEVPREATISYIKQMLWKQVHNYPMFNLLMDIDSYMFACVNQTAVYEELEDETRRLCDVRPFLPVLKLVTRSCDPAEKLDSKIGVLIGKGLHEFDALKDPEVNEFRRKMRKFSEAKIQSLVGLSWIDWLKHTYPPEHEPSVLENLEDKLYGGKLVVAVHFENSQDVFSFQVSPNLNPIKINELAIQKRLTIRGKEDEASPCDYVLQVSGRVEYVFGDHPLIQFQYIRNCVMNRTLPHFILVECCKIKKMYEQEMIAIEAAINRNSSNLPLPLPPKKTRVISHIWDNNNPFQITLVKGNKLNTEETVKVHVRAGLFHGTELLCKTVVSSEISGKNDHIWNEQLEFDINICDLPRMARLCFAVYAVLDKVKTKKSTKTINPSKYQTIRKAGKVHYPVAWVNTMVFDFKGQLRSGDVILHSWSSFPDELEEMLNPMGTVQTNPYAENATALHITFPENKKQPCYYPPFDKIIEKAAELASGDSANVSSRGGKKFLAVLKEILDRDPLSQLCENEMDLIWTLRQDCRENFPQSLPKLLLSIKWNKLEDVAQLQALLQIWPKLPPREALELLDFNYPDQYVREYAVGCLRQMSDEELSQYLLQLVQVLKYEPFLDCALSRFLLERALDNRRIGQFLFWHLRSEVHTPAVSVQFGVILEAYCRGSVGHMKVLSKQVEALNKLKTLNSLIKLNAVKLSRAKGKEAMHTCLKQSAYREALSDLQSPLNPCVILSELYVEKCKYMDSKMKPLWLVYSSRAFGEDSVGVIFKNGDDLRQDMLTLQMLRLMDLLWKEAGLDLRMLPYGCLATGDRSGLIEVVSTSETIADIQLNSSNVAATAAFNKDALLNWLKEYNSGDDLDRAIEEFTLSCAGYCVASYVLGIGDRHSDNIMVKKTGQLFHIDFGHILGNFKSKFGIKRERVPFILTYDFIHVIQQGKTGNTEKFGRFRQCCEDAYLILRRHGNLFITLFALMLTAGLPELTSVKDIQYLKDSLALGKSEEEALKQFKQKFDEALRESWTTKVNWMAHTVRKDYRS
Description: as §1

[6] = target: Phosphatidylinositol 4-phosphate 5-kinase type-1 alpha (Mus musculus, UniProt P70182)
Description: as §1

[7] = target: Phosphatidylinositol 4-phosphate 5-kinase type-1 beta (Mus musculus, UniProt P70181)
Description: as §1

**Q.** How did the IC50 [1] turn out when `C[C@H](Nc1ncnc2[nH]cnc12)c1nc2ccc(F)cc2c(=O)n1-c1ccccc1` [GS-9820] was run?
**A.** 5.44 µM

**Q.** And the IC50 [2]?
**A.** 0.0127 µM

**Q.** And the IC50 [3]?
**A.** 1.39 µM

**Q.** And the IC50 [4]?
**A.** 18.7 µM

**Q.** And the IC50 [5]?
**A.** 3.38 µM

**Q.** What about the IC50 [6] of the same molecule?
**A.** > 10 µM

**Q.** And the IC50 [7]?
**A.** > 10 µM
